Laboratory results: patent publication US20130172424A1, “METHODS AND COMPOSITIONS FOR TREATING DIABETES” (GOLDEN BIOTECHNOLOGY CORPORATION, priority 2011, published 2013)
Several values for one entry are separate records, joined by “and”; a condition that tells them apart may be missing. Equal entries are not always repeated.

System: diabetes induced by STZ in SD rats
Assay: Treatment of diabetes induced by STZ in rats
Assay type: in vivo, Sprague-Dawley rat
Conditions: Group B (AopE+STZ+Compound 1), individual rats ID 1-4, before meals
Procedure: The effects of exemplary cyclohexnone compound 1 in treating a subject suffering from diabetes were investigated in a Sprague-Dawley rat model over a four week period. The example describes the results of such experiments.
In vivo models. A rat model of diabetes was established by low-dose streptozotocin (STZ, 60 mg/kg) injection in SD rats. Rats of the same batch fed with normal chow (NRC) were used as a control (n=4).
Study group. Group A: diabetes without treatment group, n=6; Group B: AopE+STZ+Compound 1, n=4. […] Rats of Group B (treatment group) have the following blood sugar data before meals: […]

## COC1=C(OC)C(O)C(C/C=C(\C)CC/C=C(\C)CCC=C(C)C)C(C)C1=O (centres unmarked) [Compound 1, 4-hydroxy-2,3-dimethoxy-6-methyl-5-(3,7,11-trimethyldodeca-2,6,10-trienyl)cyclohex-2-enone]
2nd week
  2nd week blood sugar level: 421 mg/dL and 330 mg/dL and 261 mg/dL and 484 mg/dL
4th week, untreated diabetic rats about 400-500 mg/dl, control about 100 mg/dl
  4th week Blood sugar level: 147 mg/dL and 149 mg/dL and 89 mg/dL and 388 mg/dL
